Drawing on patent US11325899B2, “Benzofurane and benzothiophene derivatives as PGE2 receptor modulators” (IDORSIA PHARMACEUTICALS LTD, priority 2017, dated 2022), this text covers IC50 for 32 compounds.

The assay concerns the target T1, EP4 receptor (Homo sapiens, UniProt P35408).
T1 construct: BT549 breast cancer cells, express high endogenous EP4 levels and very low EP2 levels; host or cells: BT549 breast cancer cells
Kind of assay: hEP4 cAMP assay (BT549 breast cancer cells, HTRF cAMP, PGE2 stimulation). It counts as cell-based. To be noted: antagonistic activity, PGE2 6 nM (EC80). In short, it runs like this: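 BT549 cells, with endogenous EP4 and very low EP2, were preincubated 45 min at room temperature with compound in HBSS/HEPES/BSA buffer with 2 mM IBMX. They were then stimulated 30 min with 6 nM PGE2 (EC80). cAMP was measured by HTRF competitive immunoassay against a calibrator; IC50 from duplicate dose-response as % of DMSO control.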

T1 sequence (P35408 whole entry): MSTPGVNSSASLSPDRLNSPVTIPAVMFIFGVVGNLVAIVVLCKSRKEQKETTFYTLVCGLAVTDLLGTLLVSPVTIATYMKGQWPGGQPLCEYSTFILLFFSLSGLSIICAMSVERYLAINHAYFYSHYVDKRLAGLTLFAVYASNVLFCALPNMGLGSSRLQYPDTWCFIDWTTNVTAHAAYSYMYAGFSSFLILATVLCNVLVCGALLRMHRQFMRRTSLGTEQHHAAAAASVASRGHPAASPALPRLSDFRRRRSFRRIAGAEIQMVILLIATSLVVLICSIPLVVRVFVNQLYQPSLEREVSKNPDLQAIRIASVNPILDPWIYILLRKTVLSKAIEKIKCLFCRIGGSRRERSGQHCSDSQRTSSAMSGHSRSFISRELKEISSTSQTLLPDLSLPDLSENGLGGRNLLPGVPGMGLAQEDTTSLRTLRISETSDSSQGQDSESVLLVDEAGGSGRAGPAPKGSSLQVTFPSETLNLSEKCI

Compound `Cc1sc2c(C)cc(F)cc2c1CCNc1cc(-c2cc(C(F)(F)F)c(C(=O)O)s2)ncn1` [Example 46, 5-{6-[2-(5-Fluoro-2,7-dimethyl-benzo[b]thiophen-3-yl)-ethylamino]-pyrimidin-4-yl}-3-trifluoromethyl-thiophene-2-carboxylic acid] came in with an IC50 of 30 nM.
As for `CSc1cc(-c2cc(NCCc3c(C)sc4c(C)cccc34)ncn2)cc(F)c1C(=O)O` [Example 47, 4-{6-[2-(2,7-Dimethyl-benzo[b]thiophen-3-yl)-ethylamino]-pyrimidin-4-yl}-2-fluoro-6-methylsulfanyl-benzoic acid], the IC50 worked out at 989 nM.
The compound `CSc1cc(-c2cc(NCCc3c(C)sc4c(C)cccc34)ncn2)cc(Cl)c1C(=O)O` [Example 50, 2-Chloro-4-{6-[2-(2,7-dimethyl-benzo[b]thiophen-3-yl)-ethylamino]-pyrimidin-4-yl}-6-methylsulfanyl-benzoic acid] had an IC50 of 605 nM.
Next, `CCOc1cc(-c2cc(NCCc3c(C)sc4c(C)cc(F)cc34)ncn2)sc1CC(=O)O` [Example 52, (3-Ethoxy-5-{6-[2-(5-fluoro-2,7-dimethyl-benzo[b]thiophen-3-yl)-ethylamino]-pyrimidin-4-yl}-thiophen-2-yl)-acetic acid]: 231 nM; `CCOc1cc(-c2cc(NCCc3c(C#N)sc4c(C)cc(F)cc34)ncn2)ccc1C(=O)O` [Example 53, 4-{6-[2-(2-Cyano-5-fluoro-7-methyl-benzo[b]thiophen-3-yl)-ethylamino]-pyrimidin-4-yl}-2-ethoxy-benzoic acid]: 44 nM; `CCOc1cc(-c2cc(NCCc3c(C#N)sc4c(OC)cccc34)ncn2)ccc1C(=O)O` [Example 54, 4-{6-[2-(2-Cyano-7-methoxy-benzo[b]thiophen-3-yl)-ethylamino]-pyrimidin-4-yl}-2-ethoxy-benzoic acid]: 47 nM.
The same measure for `CCOc1cc(-c2cc(NCCc3c(C)sc4c(OC)ccc(F)c34)ncn2)ccc1C(=O)O` [Example 55, 2-Ethoxy-4-{6-[2-(4-fluoro-7-methoxy-2-methyl-benzo[b]thiophen-3-yl)-ethylamino]-pyrimidin-4-yl}-benzoic acid]: 138 nM; for `CCOc1cc(-c2cc(NCCc3c(C)sc4c(C)cc(F)cc34)ncn2)ccc1C(=O)O` [Example 56, 2-Ethoxy-4-{6-[2-(5-fluoro-2,7-dimethyl-benzo[b]thiophen-3-yl)-ethylamino]-pyrimidin-4-yl}-benzoic acid]: 186 nM; for `CCOc1cc(-c2cc(NCCc3c(C)sc4c(OC)ccc(Cl)c34)ncn2)ccc1C(=O)O` [Example 57, 4-{6-[2-(4-Chloro-7-methoxy-2-methyl-benzo[b]thiophen-3-yl)-ethylamino]-pyrimidin-4-yl}-2-ethoxy-benzoic acid]: 220 nM.
Next, `CCOc1cc(-c2cc(NCCc3c(Br)sc4c(C)cc(F)cc34)ncn2)ccc1C(=O)O` [Example 58, 4-{6-[2-(2-Bromo-5-fluoro-7-methyl-benzo[b]thiophen-3-yl)-ethylamino]-pyrimidin-4-yl}-2-ethoxy-benzoic acid]: 278 nM; `CCOc1cc(-c2cc(NCCc3c(Cl)sc4c(C)cc(F)cc34)ncn2)ccc1C(=O)O` [Example 59, 4-{6-[2-(2-Chloro-5-fluoro-7-methyl-benzo[b]thiophen-3-yl)-ethylamino]-pyrimidin-4-yl}-2-ethoxy-benzoic acid]: 285 nM; `CCOc1cc(-c2cc(NCCc3c(C)sc4c(C)cccc34)ncn2)ccc1C(=O)O` [Example 60, 4-{6-[2-(2,7-Dimethyl-benzo[b]thiophen-3-yl)-ethylamino]-pyrimidin-4-yl}-2-ethoxy-benzoic acid]: 344 nM.
As to `CCOc1cc(-c2cc(NCCc3c(C)sc4c(C)ccc(F)c34)ncn2)ccc1C(=O)O` [Example 61, 2-Ethoxy-4-{6-[2-(4-fluoro-2,7-dimethyl-benzo[b]thiophen-3-yl)-ethylamino]-pyrimidin-4-yl}-benzoic acid], the IC50 stood at 356 nM.
Next, `CCOc1cc(-c2cc(NCCc3c(C)sc4c(C)c(F)ccc34)ncn2)ccc1C(=O)O` [Example 62, 2-Ethoxy-4-{6-[2-(6-fluoro-2,7-dimethyl-benzo[b]thiophen-3-yl)-ethylamino]-pyrimidin-4-yl}-benzoic acid]: 393 nM.
Consider `CCOc1cc(-c2cc(NCCc3c(C)sc4c(Cl)ccc(Cl)c34)ncn2)ccc1C(=O)O` [Example 63, 4-{6-[2-(4,7-Dichloro-2-methyl-benzo[b]thiophen-3-yl)-ethylamino]-pyrimidin-4-yl}-2-ethoxy-benzoic acid], for which the IC50 turned out to be 445 nM.
For the compound `CCOc1cc(-c2cc(NCCc3c(C)oc4c(C)cc(Cl)cc34)ncn2)ccc1C(=O)O` [Example 64, 4-{6-[2-(5-Chloro-2,7-dimethyl-benzofuran-3-yl)-ethylamino]-pyrimidin-4-yl}-2-ethoxy-benzoic acid], the 50% inhibitory concentration (IC50) worked out at 546 nM.
The same measure for `CCOc1cc(-c2cc(NCCc3c(C)sc4c(Cl)cc(F)cc34)ncn2)ccc1C(=O)O` [Example 65, 4-{6-[2-(7-Chloro-5-fluoro-2-methyl-benzo[b]thiophen-3-yl)-ethylamino]-pyrimidin-4-yl}-2-ethoxy-benzoic acid]: 565 nM; for `CCOc1cc(-c2cc(NCCc3c(C)sc4c(C)ccc(Cl)c34)ncn2)ccc1C(=O)O` [Example 66, 4-{6-[2-(4-Chloro-2,7-dimethyl-benzo[b]thiophen-3-yl)-ethylamino]-pyrimidin-4-yl}-2-ethoxy-benzoic acid]: 607 nM.
The same measure for `CCOc1cc(-c2cc(NCCc3c(C)oc4c(OC)ccc(F)c34)ncn2)ccc1C(=O)O` [Example 67, 2-Ethoxy-4-{6-[2-(4-fluoro-7-methoxy-2-methyl-benzofuran-3-yl)-ethylamino]-pyrimidin-4-yl}-benzoic acid]: 635 nM.
`CCOc1cc(-c2cc(NCCc3c(C)oc4c(Cl)cccc34)ncn2)ccc1C(=O)O` [Example 68, 4-{6-[2-(7-Chloro-2-methyl-benzofuran-3-yl)-ethylamino]-pyrimidin-4-yl}-2-ethoxy-benzoic acid] displayed an IC50 of 714 nM.
Next, `CCOc1cc(-c2cc(NCCc3c(C)oc4c(C)cc(F)cc34)ncn2)ccc1C(=O)O` [Example 69, 2-Ethoxy-4-{6-[2-(5-fluoro-2,7-dimethyl-benzofuran-3-yl)-ethylamino]-pyrimidin-4-yl}-benzoic acid]: 760 nM; `CCOc1cc(-c2cc(NCCc3c(C)oc4c(OC)cc(Cl)cc34)ncn2)ccc1C(=O)O` [Example 70, 4-{6-[2-(5-Chloro-7-methoxy-2-methyl-benzofuran-3-yl)-ethylamino]-pyrimidin-4-yl}-2-ethoxy-benzoic acid]: 985 nM.
As to `CCOc1cc(-c2cc(NCCc3c(C)oc4c(Cl)cc(Cl)cc34)ncn2)ccc1C(=O)O` [Example 71, 4-{6-[2-(5,7-Dichloro-2-methyl-benzofuran-3-yl)-ethylamino]-pyrimidin-4-yl}-2-ethoxy-benzoic acid], inhibition was half-maximal at 1030 nM (IC50).
Next, `CCOc1cc(-c2cc(NCCc3c(C)sc4ccccc34)ncn2)ccc1C(=O)O` [Example 72, 2-Ethoxy-4-{6-[2-(2-methyl-benzo[b]thiophen-3-yl)-ethylamino]-pyrimidin-4-yl}-benzoic acid]: 1590 nM.
Compound `CCOc1cc(-c2cc(NCCc3c(Cl)sc4ccccc34)ncn2)ccc1C(=O)O` [Example 75, 4-{6-[2-(2-chloro-benzo[b]thiophen-3-yl)-ethylamino]-pyrimidin-4-yl}-2-ethoxy-benzoic acid] came in with a half-maximal inhibitory concentration (IC50) of 1160 nM.
The same measure for `Cc1sc2c(C)cccc2c1CCNc1cc(-c2ccc3c(C(=O)O)coc3c2)ncn1` [Example 76, 6-{6-[2-(2,7-Dimethyl-benzo[b]thiophen-3-yl)-ethylamino]-pyrimidin-4-yl}-benzofuran-3-carboxylic acid]: 523 nM.
Next, `Cc1sc2c(C)cccc2c1CCNc1cc(-c2ccc3cc(C(=O)O)oc3c2)ncn1` [Example 77, 6-{6-[2-(2,7-Dimethyl-benzo[b]thiophen-3-yl)-ethylamino]-pyrimidin-4-yl}-benzofuran-2-carboxylic acid]: 130 nM.
The same measure for `Cc1sc2c(C)cc(F)cc2c1CCNc1cc(-c2ccc(-c3nc(=O)[nH]o3)cc2)ncn1` [Example 79, 5-(4-{6-[2-(5-Fluoro-2,7-dimethyl-benzo[b]thiophen-3-yl)-ethylamino]-pyrimidin-4-yl}-phenyl)-[1,2,4]oxadiazol-3(2H)-one [tautomeric form: 5-(4-(6-((2-(5-fluoro-2,7-dimethylbenzo[b]thiophen-3-yl)ethyl)amino)pyrimidin-4-yl)phenyl)-[1,2,4]oxadiazol-3-ol]]: 91 nM.
In the case of `Cc1sc2c(C)cc(F)cc2c1CCNc1cc(-c2cc3c(C(=O)O)cccc3[nH]2)ncn1` [Example 82, 2-{6-[2-(5-Fluoro-2,7-dimethyl-benzo[b]thiophen-3-yl)-ethylamino]-pyrimidin-4-yl}-1H-indole-4-carboxylic acid], the IC50 came out at 138 nM.
The same measure for `COc1cc(Cl)cc2c(CCNc3cc(-c4ccc(C(=O)O)c(OC5CC5)c4)ncn3)c(C)oc12` [Example 83, 4-{6-[2-(5-Chloro-7-methoxy-2-methyl-benzofuran-3-yl)-ethylamino]-pyrimidin-4-yl}-2-cyclopropoxy-benzoic acid]: 111 nM.
The same measure for `COc1ccc(F)c2c(CCNc3cc(-c4ccc(C(=O)O)c(OC5CC5)c4)ncn3)c(C)sc12` [Example 84, 2-Cyclopropoxy-4-{6-[2-(4-fluoro-7-methoxy-2-methyl-benzo[b]thiophen-3-yl)-ethylamino]-pyrimidin-4-yl}-benzoic acid]: 117 nM.
Next, `COc1cc(F)c(F)c2c(CCNc3cc(-c4ccc(C(=O)O)c(OC5CC5)c4)ncn3)c(C)oc12` [Example 85, 2-Cyclopropoxy-4-{6-[2-(4,5-difluoro-7-methoxy-2-methyl-benzofuran-3-yl)-ethylamino]-pyrimidin-4-yl}-benzoic acid]: 258 nM.

By IC50 is commonly meant the point on the concentration scale where inhibition reaches its midpoint.
